Results: the supplement of paper PMC10307832

Tests used:
Assay in all cases: relative viability (nuclei count vs DMSO), 5 days (fraction); higher = more cells survive
[1] = compound: C1=CC2=C(C=C(C(=C2N=C1)O)N=NC3=CC4=C(C=C3)C=C(C=C4)S(=O)(=O)O)S(=O)(=O)O + Nc1ncn([C@H]2C[C@H](O)[C@@H](CO)O2)c(=O)n1 [Decitabine] (partner 2 µM)
Method in brief: (§1)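 Lung cancer cell lines in 1536-well plates were dosed by pin tool the day after seeding, either with one drug alone or with a fixed anchor-drug dose plus five library-drug doses (not always all listed) in √10 steps. After 5 days, cells were fixed and their nuclei stained in one step (final 0.05% Triton X-100, 1% formaldehyde, 1 ug/ml Hoechst), then counted on 4× images. Relative viability is the nuclei count in treated wells divided by that in vehicle wells. Values are medians of duplicate plates.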

[2] = compound: C1=CC2=C(C=C(C(=C2N=C1)O)N=NC3=CC4=C(C=C3)C=C(C=C4)S(=O)(=O)O)S(=O)(=O)O + O=C(CCCCCCC(=O)Nc1ccccc1)NO [Vorinostat] (partner 1 µM)
Method in brief: as §1

AT-7519 + Lapatinib = compound: O=C(NC1CCNCC1)c1n[nH]cc1NC(=O)c1c(Cl)cccc1Cl [AT-7519] + CS(=O)(=O)CCNCc1ccc(-c2ccc3ncnc(Nc4ccc(OCc5cccc(F)c5)c(Cl)c4)c3c2)o1 [Lapatinib] (partner 2 µM)
Method in brief: as §1

AT-7519 + Alpelisib = compound: O=C(NC1CCNCC1)c1n[nH]cc1NC(=O)c1c(Cl)cccc1Cl [AT-7519] + Cc1nc(NC(=O)N2CCC[C@H]2C(N)=O)sc1-c1ccnc(C(C)(C)C(F)(F)F)c1 [Alpelisib] (partner 2 µM)
Method in brief: as §1

Cell Line	relative viability ([1]; first compound 0.08 µM)	relative viability ([1]; first compound 0.253 µM)	relative viability ([1]; first compound 0.8 µM)	relative viability ([1]; first compound 2.53 µM)	relative viability ([1]; first compound 8 µM)	relative viability ([2]; first compound 0.08 µM)	relative viability ([2]; first compound 0.253 µM)	relative viability ([2]; first compound 0.8 µM)	relative viability ([2]; first compound 2.53 µM)	relative viability ([2]; first compound 8 µM)	relative viability (AT-7519 + Lapatinib; first compound 0.01 µM)	relative viability (AT-7519 + Lapatinib; first compound 0.03162 µM)	relative viability (AT-7519 + Lapatinib; first compound 0.3162 µM)	relative viability (AT-7519 + Lapatinib; first compound 1 µM)	relative viability (AT-7519 + Alpelisib; first compound 0.01 µM)	relative viability (AT-7519 + Alpelisib; first compound 0.03162 µM)	relative viability (AT-7519 + Alpelisib; first compound 0.3162 µM)	relative viability (AT-7519 + Alpelisib; first compound 1 µM)
NCI-H2170	0.494	0.454	0.464	0.429	0.459	0.975	0.811	0.862	0.914	0.784	0.289	0.305	0.278	0.249	0.828	0.796	0.794	0.81
NCI-H2347	0.586	0.61	0.602	0.629	0.614	0.691	0.621	0.59	0.408	0.729	1.04	1.06	0.989	0.935	1.2	0.952	1.08	0.771
NCI-H2405	0.744	0.685	0.7	0.828	0.742	1.01	0.937	0.942	1.02	0.932	1.04	1.04	1.03	0.719	0.934	0.773	0.716	0.331
NCI-H3122	0.415	0.471	0.472	0.448	0.439	1.16	1.04	0.96	0.814	0.948	1.02	0.986	1.08	0.701	0.827	0.699	0.813	0.263
PC-3 [JPC-3]	0.843	0.793	0.833	0.883	0.814	0.648	0.819	0.751	0.843	0.709	0.529	0.441	0.416	0.52	1.02	1.03	1.04	1.03
PC-14	0.184	0.229	0.217	0.266	0.217	0.815	0.83	0.816	0.745	0.752	0.269	0.302	0.313	0.296	0.839	1	1	0.912
RERF-LC-KJ	0.654	0.684	0.637	0.761	0.631	0.809	0.811	0.662	0.695	0.603	0.847	0.922	0.86	0.851	0.787	0.718	0.768	0.537
SK-LU-1	0.795	0.679	0.664	0.616	0.655	0.766	0.725	0.753	0.719	0.697	0.726	0.943	0.766	0.506	1.13	0.94	0.861	0.351
SK-MES-1	0.39	0.362	0.336	0.405	0.367	1.16	1.12	0.985	1.06	1.17	0.455	0.468	0.451	0.392	0.839	0.699	0.86	0.397
